Data as given in ChEMBL document CHEMBL5036363, “Discovery and Lead Optimization of Benzene-1,4-disulfonamides as Oxidative Phosphorylation Inhibitors” (J Med Chem, 2022).

Key:
Format in all cases: functional, cell-based
[1] = test system: MIA PaCa-2; assay: Cytotoxicity against human MIA PaCa-2 cells assessed as inhibition of cell growth incubated for 7 days in glucose-containing medium by MTT assay; conditions: MIA PaCa-2, 168 h
[2] = test system: BXPC-3; assay: Cytotoxicity against human BXPC-3 cells assessed as inhibition of cell growth incubated for 7 days in glucose-containing medium by MTT assay; conditions: BXPC-3, 168 h
[3] = test system: MIA PaCa-2; assay: Cytotoxicity against human MIA PaCa-2 cells assessed as inhibition of cell growth incubated for 3 days in galactose-containing medium by MTT assay; conditions: MIA PaCa-2, 72 h
[4] = test system: MIA PaCa-2; assay: Cytotoxicity against human MIA PaCa-2 cells assessed as inhibition of cell growth incubated for 3 days in glucose-containing medium by MTT assay; conditions: MIA PaCa-2, 72 h

Structure (SMILES) | IC50 [1] [µM] | IC50 [2] [µM] | IC50 [3] [µM] | IC50 [4] [µM]
CCOC(=O)[C@@H]1C[C@H](O)CN(S(=O)(=O)c2ccc(S(=O)(=O)N(CC)CC)cc2)C1 (relative stereo) | 1.3 | 3.3 | > 10 | 0.3
CCN1CC(NC(=O)[C@@H]2CCCN(S(=O)(=O)c3ccc(S(=O)(=O)N(CC)CC)cc3)C2)C1 | > 30 | > 30 | > 10 | > 10
CCN(CC)S(=O)(=O)c1ccc(S(=O)(=O)N2CCC[C@@H](c3cc(C)no3)C2)cc1 | 4.9 | 7.7 | > 10 | 2.7
CCN(CC)S(=O)(=O)c1ccc(S(=O)(=O)N2CCC[C@@H](C(=O)NC3CCN(C(=O)OC(C)(C)C)CC3)C2)cc1 | 0.1 | 0.3 |  | 
CC(C)c1noc(N2CCN(C(=O)[C@@H]3CCCN(S(=O)(=O)c4ccc(S(=O)(=O)NC5CCC5)cc4)C3)CC2)n1 | 0.6 | 3.3 | > 10 | 0.2
CCN(CC)S(=O)(=O)c1ccc(S(=O)(=O)N2CCC[C@@H](C(=O)NC3CN(C(=O)OC(C)(C)C)C3)C2)cc1 | 0.2 | 1.8 | > 10 | 0.1
CCN(CC)S(=O)(=O)c1ccc(S(=O)(=O)N2CCC[C@@H](C(=O)N[C@@H]3CCN(C(=O)OC(C)(C)C)C3)C2)cc1 | 0.2 | 0.4 | > 10 | 0.5
CCN(CC)S(=O)(=O)c1ccc(S(=O)(=O)N2CCC[C@@H](C(=O)NC3CN(C(=O)NC(C)(C)C)C3)C2)cc1 | 3.4 | 10.1 | > 10 | 1.4
CCOC(=O)[C@@H]1CCCN(S(=O)(=O)c2ccc(S(=O)(=O)N(CC)CC)cn2)C1 | 1.3 | 1.4 | > 10 | 0.3
CCN(CC)S(=O)(=O)c1ccc(S(=O)(=O)N2CCC[C@@H](C(=O)N3CC4(CCN(C(=O)OC(C)(C)C)C4)C3)C2)cc1 | 0.19 | 0.9 | > 10 | 1.3
CCN(CC)S(=O)(=O)c1ccc(S(=O)(=O)N2CCC[C@@H](C(=O)N(C)C(C)C)C2)cc1 | 6.2 | 7.7 | > 10 | 1.4
CCOC(=O)N1CCC[C@@H](S(=O)(=O)c2ccc(S(=O)(=O)N(CC)CC)cc2)C1 | > 30 | > 30 | > 10 | > 10
CCOC(=O)[C@@H]1CCCN(S(=O)(=O)c2ccc(S(=O)(=O)N(C)Cc3ccccc3)cc2)C1 | > 30 | > 30 |  | 
CC(C)c1noc(N2CCN(C(=O)[C@@H]3CCCN(S(=O)(=O)c4ccc(S(=O)(=O)NC(C)(C)C)cc4)C3)CC2)n1 | 0.3 | 2.6 | > 10 | 0.1
CCOC(=O)[C@@H]1CCCN(S(=O)(=O)c2ccc(S(=O)(=O)N(CC)CC)cc2C)C1 | 5.1 | 5.6 | > 10 | 1.2
CCN(CC)S(=O)(=O)c1ccc(S(=O)(=O)N2CCC[C@@H](C(=O)N3CCN(C(=O)OC(C)(C)C)CC3)C2)cc1 | 0.07 | 0.2 | > 10 | 0.01
CCOC(=O)[C@@H]1CCCN(S(=O)(=O)c2ccc(C(=O)N(CC)CC)cc2)C1 | 0.8 | 0.64 | > 10 | 0.1
CCOC(=O)C1CCN(S(=O)(=O)c2ccc(S(=O)(=O)N(CC)CC)cc2)CC1 | 27.2 | 23.1 |  | 
CCN(CC)S(=O)(=O)c1ccc(S(=O)(=O)N2CCC[C@@H](C(=O)N3CCN(c4nc(C(F)(F)F)no4)CC3)C2)cc1 | 0.6 |  | > 10 | 0.06
CCN(CC)S(=O)(=O)c1ccc(S(=O)(=O)N2CCC[C@@H](C(=O)NC3CN(S(C)(=O)=O)C3)C2)cc1 | 2.5 | 7.4 |  | 
CCN(CC)S(=O)(=O)c1ccc(S(=O)(=O)N2CCC[C@@H](C(=O)NC)C2)cc1 | 8.6 | 13.8 | > 10 | 2
CCN(CC)S(=O)(=O)c1ccc(S(=O)(=O)N2CCC[C@@H](C(=O)NC3CC3)C2)cc1 | 4.6 |  | > 10 | 1.1
CCOC(=O)[C@@H]1CCCN(S(=O)(=O)c2cccc(S(=O)(=O)N(CC)CC)c2)C1 | > 30 | > 30 | > 10 | > 10
CCOC(=O)[C@@H]1CCCN(S(=N)(=O)c2ccc(S(=O)(=O)N(CC)CC)cc2)C1 (stereo partly drawn) | 12.1 | 13.3 | > 10 | 4.7
CCN(CC)S(=O)(=O)c1ccc(S(=O)(=O)N2CCC[C@@H](C(=O)N3CCN(c4nnc(C(C)C)o4)CC3)C2)cc1 | 1.8 |  | > 10 | 1
CCOC(=O)[C@@H]1CCC[C@@H](S(=O)(=O)c2ccc(S(=O)(=O)N(CC)CC)cc2)C1 (relative stereo) | 16.4 | 18.5 | > 10 | 5

Structure (SMILES) | IC50 [1] [µM] | IC50 [2] [µM] | IC50 [3] [µM] | IC50 [4] [µM]
CCNS(=O)(=O)c1ccc(S(=O)(=O)N2CCC[C@@H](C(=O)N3CCN(c4nc(C(C)C)no4)CC3)C2)cc1 | 3.3 | 6.9 | > 10 | 0.2
CCN(CC)S(=O)(=O)c1ccc(S(=O)(=O)N2CCC[C@@H](C(=O)N3CC4(CN(C(=O)OC(C)(C)C)C4)C3)C2)cc1 | 0.4 | 1.1 | > 10 | 0.3
CCN(CC)S(=O)(=O)c1ccc(S(=O)(=O)N2CCC[C@@H](C(=O)N3CCC(c4nc(C(C)C)no4)CC3)C2)cc1 | 0.04 | 0.3 | > 10 | 0.03
CCOC(=O)[C@@H]1C[C@@H](O)CN(S(=O)(=O)c2ccc(S(=O)(=O)N(CC)CC)cc2)C1 (relative stereo) | 7.9 | 10.8 | > 10 | 2.1
CCOC(=O)[C@@H]1CCCN(C(=O)c2ccc(S(=O)(=O)N(CC)CC)cc2)C1 | > 10 | > 10 | > 10 | > 3
CCOC(=O)[C@@H]1CCCN(S(=O)(=O)c2ccc(S(=O)(=O)N(C)C)cc2)C1 | 0.9 | 1 | > 10 | 0.3
CCOC(=O)C1CCCCN1S(=O)(=O)c1ccc(S(=O)(=O)N(CC)CC)cc1 (stereo not drawn) | 24.6 | 12.9 | > 10 | > 3
CCN(CC)S(=O)(=O)c1ccc(S(=O)(=O)N2CCC[C@@H](C(=O)N[C@H]3CCN(C(=O)OC(C)(C)C)C3)C2)cc1 | 0.1 | 0.3 | > 10 | 0.17
CC(C)c1noc(N2CCN(C(=O)[C@@H]3CCCN(S(=O)(=O)c4ccc(S(=O)(=O)NC5CC5)cc4)C3)CC2)n1 | 1 | 6.7 | > 10 | 0.3
CCOC(=O)C12CC(CN(S(=O)(=O)c3ccc(S(=O)(=O)N(CC)CC)cc3)C1)C2 | 1 | 1.2 | > 10 | 0.4
CCOC(=O)[C@@H]1CCCN(S(=O)(=O)c2ccc(S(=O)(=O)N3CCOCC3)cc2)C1 | 23.5 | 23.4 | > 10 | 4.1
CCOC(=O)[C@@H]1CCC[C@H](S(=O)(=O)c2ccc(S(=O)(=O)N(CC)CC)cc2)C1 (relative stereo) | 21.5 | 25.2 | > 10 | > 10
CCOC(=O)[C@@H]1CCCN(S(=O)(=O)c2ccc(S(=O)(=O)N(CC)C(C)C)cc2)C1 | 1 | 1.6 | > 10 | 1.2
CCOC(=O)N1CCC[C@H](S(=O)(=O)c2ccc(S(=O)(=O)N(CC)CC)cc2)C1 | > 30 | > 30 | > 10 | > 10
CCN(CC)S(=O)(=O)c1ccc(S(=O)(=O)N2CCC[C@@H](C(=O)NC3CN(C(=O)C4CC4)C3)C2)cc1 | 2.8 | 18.5 | > 10 | 3.1
CCOC(=O)[C@@H]1CCN(S(=O)(=O)c2ccc(S(=O)(=O)N(CC)CC)cc2)C1 | 8.6 | 10 | > 10 | 1.5
CCOC(=O)[C@@H]1CCCN(S(=O)(=O)c2ccc3cc(S(=O)(=O)N(CC)CC)ccc3c2)C1 | 7.4 | 13.4 | > 10 | > 3
CCOC(=O)[C@@H]1CCCN(S(=O)(=O)c2ccc(S(=O)(=O)N(CC)CC)nc2)C1 | 5.6 | 8 | > 10 | 1.6
CCOC(=O)[C@H]1CCN(S(=O)(=O)c2ccc(S(=O)(=O)N(CC)CC)cc2)C1 | 29.2 | 29.3 | > 10 | > 10
CCOC(=O)[C@@H]1CCCN(S(=O)(=O)c2ccc(S(=O)(=O)N3CCNCC3)cc2)C1 | > 30 | > 30 |  | 
CCN(CC)S(=O)(=O)c1ccc(S(=O)(=O)N2CCC[C@@H](C(=O)N3CCN(c4nc(C)no4)CC3)C2)cc1 | 0.25 |  | > 10 | 0.2
CCOC(=O)C1CN(S(=O)(=O)c2ccc(S(=O)(=O)N(CC)CC)cc2)C1 | 13.9 | 12.7 | > 10 | 0.8
CCCN(CCC)S(=O)(=O)c1ccc(S(=O)(=O)N2CCC[C@@H](C(=O)OCC)C2)cc1 | 2.3 | 2.5 | > 10 | 0.6
CCOC(=O)[C@@H]1CCCN(S(=O)(=O)c2ccc(S(=O)(=O)N3CCCCC3)cc2)C1 | 2.9 | 3.3 | > 10 | 1
CCCN(CC)S(=O)(=O)c1ccc(S(=O)(=O)N2CCC[C@@H](C(=O)OCC)C2)cc1 | 0.3 | 0.3 |  | 
